Measurements published in patent publication US5645995A, “Methods for diagnosing an increased risk for breast or ovarian cancer” (Baylor College of Medicine, priority 1996, dated 1997).
Where a chain is given by its changes, count along the chain named.

Key:
[1] = biological target: T1, mutant human progesterone receptor (valine to leucine at amino acid 660) (Homo sapiens, UniProt P06401, V660L); test: Hormone-binding Whole Cell Assay with Scatchard analysis, COS cells expressing mutant receptor; settings: COS cells infected with 250 ng receptor DNA, 50-6400 pM [3H]R5020 overnight, Scatchard analysis (FIG. 7B), read-out: dissociation constant
T1 construct: expressed in transfected cells; host or cells: COS cells (no endogenous progesterone receptor), pcDNAI/Amp vector
T1 sequence (P06401 1-933 V660L): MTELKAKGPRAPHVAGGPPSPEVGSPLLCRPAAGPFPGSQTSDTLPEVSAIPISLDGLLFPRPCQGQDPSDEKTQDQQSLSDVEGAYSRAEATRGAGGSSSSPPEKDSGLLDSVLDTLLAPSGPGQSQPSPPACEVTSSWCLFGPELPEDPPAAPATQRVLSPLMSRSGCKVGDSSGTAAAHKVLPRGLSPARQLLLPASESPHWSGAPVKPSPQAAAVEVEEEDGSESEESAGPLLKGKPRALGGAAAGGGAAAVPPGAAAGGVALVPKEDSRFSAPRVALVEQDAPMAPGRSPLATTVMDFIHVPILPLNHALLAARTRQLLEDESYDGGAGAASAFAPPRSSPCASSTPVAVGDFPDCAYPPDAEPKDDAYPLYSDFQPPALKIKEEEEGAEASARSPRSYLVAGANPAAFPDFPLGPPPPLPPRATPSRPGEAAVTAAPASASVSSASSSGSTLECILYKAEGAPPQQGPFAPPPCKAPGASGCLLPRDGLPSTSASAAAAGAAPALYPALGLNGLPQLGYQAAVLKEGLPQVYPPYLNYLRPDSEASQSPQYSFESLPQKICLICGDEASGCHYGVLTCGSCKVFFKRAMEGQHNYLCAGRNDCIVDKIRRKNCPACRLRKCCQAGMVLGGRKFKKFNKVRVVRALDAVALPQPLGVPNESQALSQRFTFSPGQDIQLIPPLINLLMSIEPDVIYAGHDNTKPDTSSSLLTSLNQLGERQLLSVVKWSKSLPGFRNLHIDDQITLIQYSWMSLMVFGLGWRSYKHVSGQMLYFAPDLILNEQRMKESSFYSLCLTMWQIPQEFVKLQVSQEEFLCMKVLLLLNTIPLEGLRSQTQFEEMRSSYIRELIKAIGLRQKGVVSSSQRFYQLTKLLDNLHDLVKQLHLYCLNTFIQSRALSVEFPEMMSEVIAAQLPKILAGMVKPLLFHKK
Protocol: (§1) To determine whether the increase in transcriptional activity found above was due to changes in hormone-binding affinity, hormone binding affinity was measured in a Whole Cell Assay, as described by Bai et al, Mol. Endo., 8(11):1465-1473 (1994), using DNA encoding both the mutant and wild-type progesterone receptor proteins.
(§2) More specifically, COS cells were infected with 250 ng of either mutant or wild-type receptor DNA, as described above, and the infected cells were incubated overnight in DME containing 5.0% (v/v) fetal calf serum and 50-6400 pM of [^3 H]R5020 (DuPont NEN, NET-555) before harvesting. Next, the harvested cells were subjected to ethanol extraction, and bound hormone was measured by CPM counting of the extracts.

[2] = biological target: T2, wild-type human progesterone receptor (Homo sapiens, UniProt P06401); test: Hormone-binding Whole Cell Assay with Scatchard analysis, COS cells expressing wild-type receptor; settings: COS cells infected with 250 ng receptor DNA, 50-6400 pM [3H]R5020 overnight, Scatchard analysis (FIG. 7B), read-out: dissociation constant
T2 construct: expressed in transfected cells; host or cells: COS cells (no endogenous progesterone receptor), pcDNAI/Amp vector
T2 sequence (P06401 1-933): T1 sequence (P06401 1-933 V660L) with L660V
Protocol: as §1, §2

SMILES: CCC(=O)[C@@]1(C)CC[C@H]2[C@@H]3CCC4=CC(=O)CCC4=C3CC[C@@]21C [R5020]
- Kd [1]: 0.25 nM
- Kd [2]: 0.25 nM
